Assays:
Salmonellae = test: Bactericidal or bacteriostatic effect on the Salmonellae at neutral pH; assay type: cell-based, Salmonella
[1] = system: invF′-lacZ fusion (S. typhi strain Ty272); test: β-galactosidase activity of the invF′-lacZ fusion in favourable LB medium; assay type: cell-based
Method: (§1) The favourable LB medium (high osmolarity and concentration of Ca^2+ions) was defined as being the standard LB medium modified so as to have a final NaCl concentration of 300 mM and a final Ca concentration of 5 mM.
(§2) Each of the strains described above was cultured at 37° C. on agar or in TCS broth. The P-galactosidase activity was determined using 4-methyl-umbelliferyl-p-D-galactopyranoside sold by the company Sigma, according to the technique of Klarsfeld et al. (Mol. Mibrobiol., 1994, 13, 585-597). The results, expressed in P-galactosidase units (fluorescence per hour and per OD600), represent the mean of the values obtained in at least three independent experiments. The standard deviations were less than 10% of the values presented.
(§3) For this, the S. typhi strains Ty267, Ty272 and Ty277, which carry the iagA′-lacZ, invF′-lacZ and sipB′-lacZ fusions, respectively, (see Table I), were cultured in the favourable LB or unfavourable LB medium.
(§4) The action of these two compounds on the expression of the iagA′-lacZ, invF′-lacZ and sipB′-lacZ fusions was studied by measuring the β-galactosidase activity expressed by these fusions as a function of the time of culturing (samples removed every two hours).

[2] = system: sipB′-lacZ fusion (S. typhi strain Ty277); test: β-galactosidase activity of the sipB′-lacZ fusion in favourable LB medium; assay type: cell-based
Method: as §1, §2, §3, §4

S. typhimurium C52 = test: Splenic colonization of C57Bl/6 mice infected orally with S. typhimurium C52; assay type: in vivo
Method: The 5-6-week-old female C57Bl/6 mice used in the context of this experiment originated from the IFFA-CREDO breeding centre (LArbresle, France).
They were infected orally in the following way. The Salmonella strains were cultured in TCS broth for 18 hours at 37° C. with shaking (200 rpm). This culture was then adjusted to […] (in the stationary growth phase, 1 OD600 =1.5 ×10^9 bacteria/ml), and then the number of viable bacteria was controlled by counting on TCS agar.
On the day of infection (DO), the drinking-water bottles of the mice were replaced with bottles containing 100 ml of drinking water to which the required number of bacteria had been added.
After infection for 24 hours ([…]), the bottles containing the contaminated drinking water were replaced with bottles containing uncontaminated drinking water.
Seven days after infection (D+7), the spleens of the mice infected in this way were removed and homogenized separately in 1 ml of physiological saline containing 0.7% of NaCl.
The number of viable bacteria per spleen was determined by plating out dilutions of the homogenate, onto TCS agar.
The effect of the composition of the drinking water on the splenic colonization by Salmonella was estimated using the Student's t test.
The S. typhimurium strain C52 was used to infect C57Bl/6 mice orally.
On this figure, the number of viable bacteria is given as the mean (log10) of the values ± the standard deviation. […]

[3] = system: iagA′-lacZcat fusion in S. typhi strain Ty267; test: "Biotype 100" plate screen for carbon-based substrates that repress the iagA′-lacZcat fusion (β-galactosidase activity); assay type: cell-based; conditions: "Biotype 100" cupule, amount of substrate not known; favourable LB medium; 36 hours at 37° C.; control cupule without substrate 11 250
Method: as §2
A “Biotype 100”® plate sold by the company BioMerieux is composed of 100 microcupules. Each micro-cupule contains a dehydrated carbon-based substrate, with the exception of the first cupule, which is a control without substrate (the amount of dehydrated substrate per cupule is not given by the manufacturer).
In the context of the present example, these plates were used to search for carbon-based compounds which would block the expression of the invasion genes in Salmonella.
For this, the S. typhi strain Ty267, which is a derivative of the parental strain Ty2 carrying the iagA′-lacZcat transcriptional fusion (Table I), was cultured in TCS broth for 18 hours at 37° C. with shaking (200 rpm).
This culture was then diluted 100-fold in favourable LB medium (0.6 ml of culture for 60 ml of favourable LB), and then this suspension was used immediately to seed the 100 cupules of a “Biotype 100”® plate, in a proportion of 450 μl of suspension per cupule.
After incubation for 36 hours in an incubator at 37° C., the activity of the iagA′-lacZcat fusion in the Ty267 strain was determined for the culture of each cupule.
By comparing the value of the P-galactosidase activity measured in a cupule containing a carbon-based substrate with that of the control cupule without substrate, it was possible to investigate whether a substrate had no effect on, activated or repressed the expression of the iagA′-lacZcat fusion.
The S. typhi strain Ty267 (iagA′-lacZ fusion), suspended in the favourable LB medium, was used to seed the “Biotype 100”® plates.
The β-galactosidase activity expressed by the iagA′-lacZ fusion was determined for the culture in each cupule. With respect to the β-galactosidase activity measured in the control cupule without substrate (11 250 β-galactosidase units), no substrate caused an increase in the expression of the iagA′-lacZ fusion.

[4] = system: iagA′-lacZ fusion (S. typhi strain Ty267); test: β-galactosidase activity of the iagA′-lacZ fusion in favourable LB medium; assay type: cell-based
S. typhi strain Ty2 = test: Mobility by the U-tube culturing technique; assay type: cell-based; conditions: U tube supplemented with 5 mM
Method: The mobility of each strain was studied using the U-tube culturing technique (Popoff and Le Minor, Guide pour la preparation des serum anti-Salmonella (Guide for preparing salmonella antisera], 1997). When necessary, the culture media were supplemented with chloramphenicol (Cm) at 15 μg/ml.

[5] = system: iagA′-lacZ fusion (S. typhi strain Ty267); test: β-galactosidase activity of the iagA′-lacZ fusion in favourable LB medium; assay type: cell-based; conditions: 5 mM in favourable LB medium, 6 hours at 37° C.
Method: as §1
Each of the strains described above was cultured at 37° C. on agar or in TCS broth. The P-galactosidase activity was determined using 4-methyl-umbelliferyl-p-D-galactopyranoside sold by the company Sigma, according to the technique of Klarsfeld et al. (Mol. Mibrobiol., 1994, 13, 585-597). The results, expressed in P-galactosidase units (fluorescence per hour and per OD600), represent the mean of the values obtained in at least three independent experiments. The standard deviations were less than 10% of the values presented. […]
The β-galactosidase activity of the iagA′-lacZ fusion was measured after incubation for 6 hours at 37° C. with shaking (200 rpm).
The S. typhi Ty267 strain (iagA′-lacZ fusion) was seeded into favourable LB medium and into favourable LB medium containing the fatty acid to be tested, in the form of its sodium salt, at the final concentration of 5 mM.

[6] = system: tviB′-lacZ fusion (S. typhi strain Ty266); test: β-galactosidase activity of the tviB′-lacZ fusion (specificity control); assay type: cell-based; conditions: 5 mM in favourable LB medium
Method: as §2
The tviB gene has been characterized in S. typhi, and it encodes a GDP-dehydrogenase involved in the biosynthesis of the Vi antigen, which is the capsular polysaccharide of the typhus bacillus (Waxin et al., Res. Microbiol., 1993, 144, 363-371).
The results are reported on FIG. 4, in which it is seen that samples were taken every two hours in order to measure the OD600 (corresponding to the open symbols) and in order to determine the β-galactosidase activity (corresponding to the solid symbols).

S. typhi = conditions: 0.25 g/l; cited from earlier work
Vibrio cholerae = conditions: 0.25 g/l; cited from earlier work
[7] = system: Gram-positive or Gram-negative bacteria; conditions: in vitro, concentration not given; cited from earlier work
Shigella sonnei = conditions: 0.25 g/l; cited from earlier work
[8] = concentration greater than or equal to 2.5 mM, favourable LB medium

SMILES	bactericidal or bacteriostatic effect on the Salmonellae (Salmonellae)	decrease of the activity of the invF′-lacZ fusion with respect to favourable LB medium without the substance ([1]; 1 mM in favourable LB medium)	expression of the invF gene (invF′-lacZ fusion) [1, 8]	decrease of the activity of the sipB′-lacZ fusion with respect to favourable LB medium without the substance ([2]; 1 mM in favourable LB medium)	expression of the sipB gene (sipB′-lacZ fusion) [2, 8]	effect on the level of splenic colonization / protection (in words) (S. typhimurium C52; 50 mM (EDTA 10 mM) in drinking water, 5 × 10^7 bacteria orally)	Number of viable bacteria in the spleen (mean log10) (Table III) (S. typhimurium C52; 50 mM each (EDTA 10 mM) in drinking water pH 7.2-7.3 from two days before infection, 5 × 10^7 bacteria (125 LD50) orally, D+7, distilled water 7.9 ± 0.3)	β-galactosidase activity expressed by the iagA′-lacZ fusion in the cupule [3]	decrease of the activity of the iagA′-lacZ fusion with respect to favourable LB medium without the substance ([4]; 1 mM in favourable LB medium)	expression of the iagA gene (iagA′-lacZ fusion) [4, 8]	mobility of the Ty2 strain (S. typhi strain Ty2)	β-galactosidase activity of the iagA′-lacZ fusion (Table II) ([5]; control 12134 ± 1811)	inhibition of the expression of the iagA′-lacZ fusion in S. typhi (in words) ([5]; sodium salt)	effect on the expression of the tviB′-lacZ fusion [6]	bactericidal activity in vitro on S. typhi (S. typhi)	bactericidal activity in vitro on Vibrio cholerae (Vibrio cholerae)	bacteriostatic or bactericidal effect on Gram-positive or Gram-negative bacteria [7]	bactericidal activity in vitro on Shigella sonnei (Shigella sonnei)
O=C([O-])c1ccccc1.[Na+] [sodium benzoate]	none of these compounds has any significant bactericidal or bacteriostatic effect	50%	very strongly represses	50%	very strongly represses	no effect	7.8 ± 0.8 log10	245 β-galactosidase units	50%	very strongly represses	same mobility	190 ± 17 β-galactosidase units	inhibit	no significant effect	–	–	–	–
CCCCCCCCCCCC(=O)O [lauric acid]	–	–	–	–	–	–	–	–	–	–	–	–	–	–	bactericidal activity	bactericidal activity	very effective	bactericidal activity
